Test results as given in US20250177548A1, “FUSOGENIC PEPTIDE COMPOSITIONS AND METHODS OF CARGO DELIVERY” (CLEMSON UNIVERSITY, priority 2022, published 2025).
Non-standard residues stand in square brackets, D forms with d. No end group written: not given here. pG = not defined here

System: CSNK2A1 mRNA
Assay: qPCR of CSNK2A1 mRNA in OVCAR3 cells
Type: cell-based
Protocol: qRT-PCR. Cells were seeded at 50,000 cells per well and treated with siRNA targeting CSNK2A1 (siCSNK2A1 #s3638, Thermo Fisher Scientific) at increasing N:P ratios and incubated for a total of 48 hours in McCoys 5A/DMEM-10% FBS. Treated cells were washed with 1×PBS at 24 hours and fresh media was added. RNAisolation was completed using a Qiagen Mini-RNeasy Kit (Qiagen, Hilden, Germany) according to the manufacturer's protocol. RNA isolation quality and quantity were measured through the Gen5 protocol using a Take3 plate (BioTek). RNA was reverse-transcribed using the QuantiTect Reverse Transcription kit (Qiagen). Quantitative real-time PCR was completed with a QuantStudio 3 qPCR system (Applied Biosystems) using Applied Biosystems TaqMan FAST Master Mix (Thermo Fisher) and CSNK2A1 (ID #Hs00751002_s1) and 18S (ID #Hs99999901_s1) predesigned TaqMan probes, according to the manufacturer's protocol.
Gene and Protein Knockdown. Bioactivity of siRNAs was determined via qPCR and western blot analysis. OVCAR3 or CAOV3 cells were seeded at 50,000 cells per well as previously described and treated with siRNA targeting CSNK2A1 and siNT at N:P ratios 30:1, 40:1, 50:1, 60:1, and 70:1. LHRH-DIV3W peptide complexed with either siNT or siCSNK2A1 was incubated for a total of 48 hours in RPMI 1640/DMEM-10% FBS, with one media exchange occurring after the 24-hour timepoint. Treated cells were washed with 1×PBS at 24 hours and fresh media was added. RNA isolation was completed using a Qiagen Mini-RNeasy Kit (Qiagen, Hilden, Germany) according to the manufacturer's protocol. RNA isolation quality and quantity was measured through the Gen5 protocol using a Take3 plate (BioTek). RNA was reverse transcribed using the QuantiTect Reverse Transcription kit (Qiagen) according to the manufacturer's protocol. Quantitative real-time PCR was completed with a QuantStudio 3 qPCR system (Applied Biosystems, Waltham, MA) using Applied Biosystems TaqMan FAST Master Mix (Thermo Fisher) and CSNK2A1 (ID #Hs00751002_s1) and 18S (ID #Hs99999901_s1) predesigned TaqMan probes according to the manufacturer's protocol.

pGHWSY-(d) LLRPGGGGGWEADIVADIVWDIVADIVAGGG-(d) RRRRRRRRR ([pG]HWSY[dL]LRPGGGGGWEADIVADIVWDIVADIVAGGG[dR][dR][dR][dR][dR][dR][dR][dR][dR]; reading uncertain) [LHRH-DIV3W]
CSNK2A1 mRNA expression, % of negative control (50:1, vs LHRH-DIV3W-siNT): 59.75%±12.61%
CSNK2A1 mRNA expression, % of negative control (60:1, vs LHRH-DIV3W-siNT): 72.17%±23.19%
CSNK2A1 mRNA expression, % of negative control (70:1, vs LHRH-DIV3W-siNT): 51.88%±9.87%
